Reference: US8895733B2 (Novartis AG, priority 2010, dated 2014)

Target: T1, Nav 1.7 (Homo sapiens, UniProt Q15858)
T1 construct: expressed in transfected cells
Experiment: Whole-cell voltage clamp electrophysiology, automated patch clamp (marker c in Table of Examples)
Format: cell-based
Conditions: marker c = Automated patch clamp data; read-out: Nav 1.7 activity
Procedure, shortened: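 A voltage protocol weighted toward inactivated-state block was used to test compounds on stably expressing cells, with pulses from −65 mV holding to −10 mV test and −100 mV. Currents came from whole-cell automated patch-clamp recordings, either IonWorks Quattro or other automated instruments, usually in perforated-patch mode.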

T1 sequence (Q15858 whole entry): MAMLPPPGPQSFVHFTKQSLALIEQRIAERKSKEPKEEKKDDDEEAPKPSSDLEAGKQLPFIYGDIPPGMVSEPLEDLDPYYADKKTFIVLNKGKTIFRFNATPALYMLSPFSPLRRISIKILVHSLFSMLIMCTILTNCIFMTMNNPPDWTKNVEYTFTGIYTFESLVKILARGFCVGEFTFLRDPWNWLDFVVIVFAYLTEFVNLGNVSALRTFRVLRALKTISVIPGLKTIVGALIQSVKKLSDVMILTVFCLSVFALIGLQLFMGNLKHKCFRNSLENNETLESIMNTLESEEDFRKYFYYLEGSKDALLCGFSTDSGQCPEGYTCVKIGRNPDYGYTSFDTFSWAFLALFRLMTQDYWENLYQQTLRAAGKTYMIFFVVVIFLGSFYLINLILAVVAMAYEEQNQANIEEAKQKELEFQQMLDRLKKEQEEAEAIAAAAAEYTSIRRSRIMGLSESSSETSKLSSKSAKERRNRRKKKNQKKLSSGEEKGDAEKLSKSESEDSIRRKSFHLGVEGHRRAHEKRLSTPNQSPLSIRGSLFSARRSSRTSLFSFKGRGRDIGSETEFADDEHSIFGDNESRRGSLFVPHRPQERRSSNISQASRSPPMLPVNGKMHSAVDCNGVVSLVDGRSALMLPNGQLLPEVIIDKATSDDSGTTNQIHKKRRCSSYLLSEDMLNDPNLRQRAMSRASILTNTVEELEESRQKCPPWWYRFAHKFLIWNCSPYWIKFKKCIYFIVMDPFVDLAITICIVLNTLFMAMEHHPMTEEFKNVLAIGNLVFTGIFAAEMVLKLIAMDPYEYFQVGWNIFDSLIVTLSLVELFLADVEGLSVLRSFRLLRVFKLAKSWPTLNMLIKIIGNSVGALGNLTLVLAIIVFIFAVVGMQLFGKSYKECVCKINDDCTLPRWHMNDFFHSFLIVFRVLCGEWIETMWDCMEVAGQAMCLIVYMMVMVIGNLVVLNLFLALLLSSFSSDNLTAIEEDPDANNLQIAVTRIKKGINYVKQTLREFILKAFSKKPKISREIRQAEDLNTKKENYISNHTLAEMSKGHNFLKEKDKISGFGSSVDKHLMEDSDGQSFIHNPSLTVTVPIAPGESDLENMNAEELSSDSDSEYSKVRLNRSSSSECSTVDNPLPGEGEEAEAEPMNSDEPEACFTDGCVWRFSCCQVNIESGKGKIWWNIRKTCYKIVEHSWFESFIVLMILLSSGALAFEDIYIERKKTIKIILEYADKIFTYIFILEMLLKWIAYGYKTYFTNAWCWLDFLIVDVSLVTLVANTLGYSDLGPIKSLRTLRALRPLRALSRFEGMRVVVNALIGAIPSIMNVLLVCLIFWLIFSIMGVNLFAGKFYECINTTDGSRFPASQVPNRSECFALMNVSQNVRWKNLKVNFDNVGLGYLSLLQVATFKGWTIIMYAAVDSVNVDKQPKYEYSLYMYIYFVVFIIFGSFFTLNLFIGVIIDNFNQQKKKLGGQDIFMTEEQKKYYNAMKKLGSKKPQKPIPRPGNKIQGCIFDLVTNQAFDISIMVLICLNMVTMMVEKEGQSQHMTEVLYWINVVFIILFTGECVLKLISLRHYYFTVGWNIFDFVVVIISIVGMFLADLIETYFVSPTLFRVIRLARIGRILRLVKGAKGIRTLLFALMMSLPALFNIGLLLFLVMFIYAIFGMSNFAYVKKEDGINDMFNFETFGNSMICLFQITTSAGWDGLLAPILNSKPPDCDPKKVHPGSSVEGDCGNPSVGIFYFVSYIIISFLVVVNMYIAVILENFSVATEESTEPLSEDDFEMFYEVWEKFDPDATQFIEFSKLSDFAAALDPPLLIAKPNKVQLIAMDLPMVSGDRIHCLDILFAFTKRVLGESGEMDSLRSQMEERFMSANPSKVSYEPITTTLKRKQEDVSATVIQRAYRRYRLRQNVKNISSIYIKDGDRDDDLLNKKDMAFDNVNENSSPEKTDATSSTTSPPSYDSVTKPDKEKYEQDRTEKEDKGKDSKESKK

| IC50 [nM] | SMILES |
| --- | --- |
| 1110 | CC(C)Nc1ccc(-c2nc(-c3nc(N)nc(N(C)c4ccccc4)n3)no2)cn1 [Example 332, 2-N-Methyl-2-N-phenyl-6-(5-{6-[(propan-2-yl)amino]pyridin-3-yl}-1,2,4-oxadiazol-3-yl)-1,3,5-triazine-2,4-diamine] |
| 386 | Nc1nc(Nc2cccc(Cl)c2)nc(-c2noc(-c3ccccn3)n2)n1 [Example 265, 2-N-(3-chlorophenyl)-6-[5-(pyridin-2-yl)-1,2,4-oxadiazol-3-yl]-1,3,5-triazine-2,4-diamine] |
| 478 | CN(c1cccc(Cl)c1)c1nc(N)nc(-c2noc(-c3ncccc3F)n2)n1 [Example 272, 2-N-(3-chlorophenyl)-6-[5-(3-fluoropyridin-2-yl)-1,2,4-oxadiazol-3-yl]-2-N-methyl-1,3,5-triazine-2,4-diamine] |
| 1510 | CN(c1ccccc1)c1nc(N)nc(-c2noc(-c3cccnc3C(=O)NCC(F)(F)F)n2)n1 [Example 375, 3-(3-{4-amino-6-[methyl(phenyl)amino]-1,3,5-triazin-2-yl}-1,2,4-oxadiazol-5-yl)-N-(2,2,2-trifluoroethyl)pyridine-2-carboxamide] |
| 1450 | CCOc1ncccc1-c1nc(-c2nc(N)nc(N(C)c3ccccc3)n2)no1 [Example 419, 6-[5-(2-ethoxypyridin-3-yl)-1,2,4-oxadiazol-3-yl]-2-N-methyl-2-N-phenyl-1,3,5-triazine-2,4-diamine] |
| 172 | Nc1nc(Nc2cccc(F)c2)nc(-c2noc(-c3ncccc3F)n2)n1 [Example 240, 2-N-(3-fluorophenyl)-6-[5-(3-fluoropyridin-2-yl)-1,2,4-oxadiazol-3-yl]-1,3,5-triazine-2,4-diamine] |

Continued, compound first:

| SMILES | IC50 [nM] |
| --- | --- |
| CN(c1ccccc1)c1nc(N)nc(-c2noc(N3C[C@@H]4[C@@H](COC5CCCC5)[C@@H]4C3)n2)n1 [Example 399, 6-{5-[6-[(cyclopentyloxy)methyl]-3-azabicyclo[3.1.0]hexan-3-yl]-1,2,4-oxadiazol-3-yl}-2-N-methyl-2-N-phenyl-1,3,5-triazine-2,4-diamine] | 620 |
| CN(c1ccccc1)c1nc(N)nc(-c2noc(-c3ccc(C(=O)OC4CCCC4)nc3)n2)n1 [Example 290, cyclopentyl 5-(3-{4-amino-6-[methyl(phenyl)amino]-1,3,5-triazin-2-yl}-1,2,4-oxadiazol-5-yl)pyridine-2-carboxylate] | 59 |
| Nc1nc(Nc2ccccc2)nc(-c2noc(C3CCN(S(=O)(=O)C4CCCC4)CC3)n2)n1 [Example 516, 6-{5-[1-(cyclopentanesulfonyl)piperidin-4-yl]-1,2,4-oxadiazol-3-yl}-2-N-phenyl-1,3,5-triazine2,4-diamine] | > 9560 |
| Nc1nc(Nc2ccccc2)nc(-c2noc(N3CC(Oc4ccccc4)C3)n2)n1 [Example 503, 6-[5-(3-phenoxyazetidin-1-yl)-1,2,4-oxadiazol-3-yl]-2-N-phenyl-1,3,5-triazine-2,4-diamine] | 461 |
| CC(C)C(=O)NC1CCC(c2nc(-c3nc(N)nc(N(C)c4ccccc4)n3)no2)CC1 (stereo not drawn) [Example 425, N-[4-(3-{4-Amino-6-[methyl(phenyl)amino]-1,3,5-triazin-2-yl}-1,2,4-oxadiazol-5-yl)cyclohexyl]-2-methylpropanamide] | 2450 |
| CN(c1ccccc1)c1nc(N)nc(-c2noc([C@H]3CCCN3S(=O)(=O)CC(F)(F)F)n2)n1 [Example 448, 2-N-methyl-2-N-phenyl-6-{5-[(2R)-1-[(2,2,2-trifluoroethane)sulfonyl]pyrrolidin-2-yl]-1,2,4-oxadiazol-3-yl}-1,3,5-triazine-2,4-diamine] | 287 |
| CN(c1ccccc1)c1nc(N)nc(-c2noc(-c3ccc(OCC#N)nc3)n2)n1 [Example 330, 2-{[5-(3-{4-Amino-6-[methyl(phenyl)amino]-1,3,5-triazin-2-yl}-1,2,4-oxadiazol-5-yl)pyridin-2-yl]oxy}acetonitrile] | 9210 |
| Nc1nc(Nc2cccc(F)c2)nc(-c2noc(C(=O)NC3CCCC3)n2)n1 [Example 219, 3-{4-amino-6-[(3-fluorophenyl)amino]-1,3,5-triazin-2-yl}-N-cyclopentyl-1,2,4-oxadiazole-5-carboxamide] | 1960 |
| CN(c1ccccc1)c1nc(N)nc(-c2noc(-c3ccc(C(=O)NCC4CC4)nc3)n2)n1 [Example 288, 5-(3-{4-amino-6-[methyl(phenyl)amino]-1,3,5-triazin-2-yl}-1,2,4-oxadiazol-5-yl)-N-(cyclopropylmethyl)pyridine-2-carboxamide] | 1140 |
| Nc1nc(Nc2ccccc2)nc(-c2noc(-c3ccc(COCC4CC4)nc3)n2)n1 [Example 211, 6-(5-{6-[(cyclopropylmethoxy)methyl]pyridin-3-yl}-1,2,4-oxadiazol-3-yl)-2-N-phenyl-1,3,5-triazine-2,4-diamine] | 44 |
| CC(OCc1ccc(-c2nc(-c3nc(N)nc(N(C)c4ccccc4)n3)no2)cn1)C(F)(F)F (stereo not drawn) [Example 206, 2-N-methyl-2-N-phenyl-6-[5-(6-{[(1,1,1-trifluoropropan-2-yl)oxy]methyl}pyridin-3-yl)-1,2,4-oxadiazol-3-yl]-1,3,5-triazine-2,4-diamine] | 17 |
| Nc1nc(Nc2ccccc2)nc(-c2noc(N3CC4C(COc5ccccc5)C4C3)n2)n1 (stereo not drawn) [Example 392, 6-{5-[6-(phenoxymethyl)-3-azabicyclo[3.1.0]hexan-3-yl]-1,2,4-oxadiazol-3-yl}-2-N-phenyl-1,3,5-triazine-2,4-diamine] | 433 |
| CN(c1ccccc1)c1nc(N)nc(-c2noc(C(=O)N3CCC(COCC4CC4)CC3)n2)n1 [Example 459, 6-[5-({4-[(cyclopropylmethoxy)methyl]piperidin-1-yl}carbonyl)-1,2,4-oxadiazol-3-yl]-2-N-methyl-2-N-phenyl-1,3,5-triazine-2,4-diamine] | 3250 |
| CN(c1ccccc1)c1nc(N)nc(-c2noc(C(=O)N3C[C@@H]4[C@@H](COc5ccccc5)[C@@H]4C3)n2)n1 [Example 406, 2-N-methyl-6-(5-{[-6-(phenoxymethyl)-3-azabicyclo[3.1.0]hexan-3-yl]carbonyl}-1,2,4-oxadiazol-3-yl)-2-N-phenyl-1,3,5-triazine-2,4-diamine] | 624 |
| CN(c1ccccc1)c1nc(N)nc(-c2noc(C(=O)N3C[C@@H]4[C@@H](COC5CCCC5)[C@@H]4C3)n2)n1 [Example 405, 6-(5-{[-6-[(cyclopentyloxy)methyl]-3-azabicyclo[3.1.0]hexan-3-yl]carbonyl}-1,2,4-oxadiazol-3-yl)-2-N-methyl-2-N-phenyl-1,3,5-triazine-2,4-diamine] | 1280 |

Same assay, conditions: marker c: Automated patch clamp data; read-out: Nav 1.7 activity

| IC50 [nM] | SMILES |
| --- | --- |
| 1410 | CN(c1ccccc1)c1nc(N)nc(-c2noc(-c3ncccc3OCC(F)(F)F)n2)n1 [Example 42, N-Methyl-N-phenyl-6-{5-[3-(2,2,2-trifluoro-ethoxy)-pyridin-2-yl]-[1,2,4]oxadiazol-3-yl}-[1,3,5]triazine-2,4-diamine] |
| 4570 | CN(c1ccccc1)c1nc(N)nc(-c2noc(-c3cccc(OCC(F)(F)F)n3)n2)n1 [Example 155, 2-N-methyl-2-N-phenyl-6-{5-[6-(2,2,2-trifluoroethoxy)pyridin-2-yl]-1,2,4-oxadiazol-3-yl}-1,3,5-triazine-2,4-diamine] |
| 246 | COc1ccc(-c2nc(-c3nc(N)nc(N(C)c4ccccc4)n3)no2)c(OC)c1 [Example 77, 6-[5-(2,4-Dimethoxy-phenyl)-[1,2,4]oxadiazol-3-yl]-N-methyl-N-phenyl-[1,3,5]triazine-2,4-diamine] |
| 644 | CN(c1ccccc1)c1nc(N)nc(-c2noc(-c3ccc(F)cc3)n2)n1 [Example 122, 6-[5-(4-Fluoro-phenyl)-[1,2,4]oxadiazol-3-yl]-N-methyl-N-phenyl-[1,3,5]triazine-2,4-diamine] |
| 606 | CN(c1ccccc1)c1nc(N)nc(-c2noc(-c3ccncc3)n2)n1 [Example 114, N-Methyl-N-phenyl-6-(5-pyridin-4-yl-[1,2,4]oxadiazol-3-yl)-[1,3,5]triazine-2,4-diamine] |
| 2240 | CN(c1ccccc1)c1nc(N)nc(-c2noc(-c3ccncn3)n2)n1 [Example 120, N-Methyl-N-phenyl-6-(5-pyrimidin-4-yl-[1,2,4]oxadiazol-3-yl)-[1,3,5]triazine-2,4-diamine] |

Second part, the compound before the results:

| SMILES | IC50 [nM] |
| --- | --- |
| CCOc1ccccc1-c1nc(-c2nc(N)nc(N(CC)c3ccccc3)n2)no1 [Example 196, 6-[5-(2-ethoxyphenyl)-1,2,4-oxadiazol-3-yl]-2-N-ethyl-2-N-phenyl-1,3,5-triazine-2,4-diamine] | 764 |
| Nc1nc(Nc2cccc(F)c2F)nc(-c2noc(-c3ccc(OCC4CC4)nc3)n2)n1 [Example 139, 6-{5-[6-(cyclopropylmethoxy)pyridin-3-yl]-1,2,4-oxadiazol-3-yl}-2-N-(2,3-difluorophenyl)-1,3,5-triazine-2,4-diamine] | 144 |
| CC(C)C(=O)N1CCC(c2nc(-c3nc(N)nc(N(C)c4ccccc4)n3)no2)CC1 [Example 161, 1-[4-(3-{4-Amino-6-[methyl(phenyl)amino]-1,3,5-triazin-2-yl}-1,2,4-oxadiazol-5-yl)piperidin-1-yl]-2-methylpropan-1-one] | 8500 |
| CCN(c1ccccc1)c1nc(N)nc(-c2noc(-c3cc(F)ccc3OC)n2)n1 [Example 197, 2-N-ethyl-6-[5-(5-fluoro-2-methoxyphenyl)-1,2,4-oxadiazol-3-yl]-2-N-phenyl-1,3,5-triazine-2,4-diamine] | 571 |
| CCN(c1ccccc1)c1nc(N)nc(-c2noc(-c3ccccc3OC(F)(F)F)n2)n1 [Example 198, 2-N-ethyl-2-N-phenyl-6-{5-[2-(trifluoromethoxy)phenyl]-1,2,4-oxadiazol-3-yl}-1,3,5-triazine-2,4-diamine] | 777 |
| CCN(c1ccccc1)c1nc(N)nc(-c2noc(-c3ccc(C)o3)n2)n1 [Example 97, N-Ethyl-6-[5-(5-methyl-furan-2-yl)-[1,2,4]oxadiazol-3-yl]-N-phenyl-[1,3,5]triazine-2,4-diamine] | 1300 |
